In the CheMixHub viscosity set:
± gives the uncertainty stated by the source.

Test: xn = mol fraction of the nth substance listed

CCCCC(=O)O + CCCCCO
viscosity [mPa·s], 100 kPa
Details	x1 = 0.0805	x1 = 0.1593	x1 = 0.2392	x1 = 0.3508	x1 = 0.4406	x1 = 0.5609	x1 = 0.6497	x1 = 0.7392	x1 = 0.8517	x1 = 0.9395
293.15 K	3.93 ± 0.08	3.83 ± 0.08	3.71 ± 0.08	3.54 ± 0.08	3.38 ± 0.08	3.15 ± 0.08	2.98 ± 0.08	2.79 ± 0.08	2.56 ± 0.08	2.37 ± 0.08
303.15 K	2.98 ± 0.08	2.92 ± 0.08	2.85 ± 0.08	2.74 ± 0.08	2.63 ± 0.08	2.48 ± 0.08	2.36 ± 0.08	2.24 ± 0.08	2.08 ± 0.08	1.96 ± 0.08
313.15 K	2.29 ± 0.08	2.25 ± 0.08	2.21 ± 0.08	2.14 ± 0.08	2.07 ± 0.08	1.97 ± 0.08	1.9 ± 0.08	1.82 ± 0.08	1.71 ± 0.08	1.63 ± 0.08
323.15 K	1.79 ± 0.08	1.76 ± 0.08	1.73 ± 0.08	1.68 ± 0.08	1.64 ± 0.08	1.58 ± 0.08	1.54 ± 0.08	1.49 ± 0.08	1.43 ± 0.08	1.38 ± 0.08

O=C(O)CC(O)C(=O)O (stereo not given) + C[N+](C)(C)CC(=O)[O-]
Details	viscosity [mPa·s]
318.15 K, 101 kPa, x2 = 0.5	42170 ± 6700

C[C@H](CCC(=O)[O-])[C@H]1CC[C@H]2[C@@H]3[C@H](O)C[C@@H]4C[C@H](O)CC[C@]4(C)[C@H]3C[C@H](O)[C@]12C.[Na+] + O
viscosity [mPa·s], 101 kPa
Details	x1 = 4.223e-05	x1 = 8.385e-05	x1 = 0.0001682	x1 = 0.0003376	x1 = 0.0004225	x1 = 0.0005082	x1 = 0.0006801	x1 = 0.0008535
293.15 K	–	–	–	–	–	–	1.082 ± 0.007	1.105 ± 0.007
298.15 K	–	0.8984 ± 0.0057	–	0.9231 ± 0.0058	–	0.9405 ± 0.0059	0.9598 ± 0.006	0.9782 ± 0.0061
303.15 K	0.801 ± 0.0051	0.8044 ± 0.0051	0.8115 ± 0.0052	0.8262 ± 0.0053	0.8337 ± 0.0053	–	0.8579 ± 0.0054	0.875 ± 0.0055
308.15 K	–	0.7264 ± 0.0047	0.7329 ± 0.0048	0.7454 ± 0.0048	0.7527 ± 0.0049	0.7593 ± 0.0049	0.774 ± 0.005	0.7887 ± 0.0051
313.15 K	–	–	–	0.6763 ± 0.0045	0.6826 ± 0.0045	–	0.7016 ± 0.0046	0.7154 ± 0.0047

C1=Cc2cccc3cccc1c23 + Cc1ccccc1
viscosity [mPa·s], 101 kPa
Details	303.15 K	308.15 K	313.15 K	318.15 K
x1 = 0.1292	0.6888 ± 0.064	0.6467 ± 0.016	0.608 ± 0.015	0.573 ± 0.014
x1 = 0.195	0.794 ± 0.02	0.74 ± 0.019	0.6961 ± 0.017	0.6516 ± 0.016

Cc1cccc(N)c1 + C1CCCCC1
303.15 K, 101.33 kPa
Details	viscosity [mPa·s]
x1 = 0.2	0.95 ± 0.021
x1 = 0.398	1.13 ± 0.021
x1 = 0.559	1.35 ± 0.022
x1 = 0.786	1.88 ± 0.025

CCCCC(=O)O + CCCCCCCCO
viscosity [mPa·s], 100 kPa
Details	x1 = 0.0831	x1 = 0.1619	x1 = 0.2381	x1 = 0.3512	x1 = 0.4418	x1 = 0.5665	x1 = 0.6539	x1 = 0.7441	x1 = 0.8551	x1 = 0.9417
293.15 K	8.14 ± 0.09	7.31 ± 0.09	6.64 ± 0.09	5.83 ± 0.09	5.25 ± 0.09	4.52 ± 0.08	4.04 ± 0.08	3.56 ± 0.08	2.99 ± 0.08	2.55 ± 0.08
303.15 K	5.85 ± 0.09	5.4 ± 0.08	5.01 ± 0.08	4.47 ± 0.08	4.06 ± 0.08	3.51 ± 0.08	3.14 ± 0.08	2.78 ± 0.08	2.36 ± 0.08	2.06 ± 0.08
313.15 K	4.28 ± 0.08	3.97 ± 0.08	3.7 ± 0.08	3.33 ± 0.08	3.06 ± 0.08	2.7 ± 0.08	2.46 ± 0.08	2.21 ± 0.08	1.93 ± 0.08	1.71 ± 0.08
323.15 K	3.21 ± 0.08	3.01 ± 0.08	2.83 ± 0.08	2.59 ± 0.08	2.4 ± 0.08	2.15 ± 0.08	1.99 ± 0.08	1.82 ± 0.08	1.61 ± 0.08	1.45 ± 0.08

C[NH2+]CCO.O=C([O-])c1ccccc1O + O
100 kPa, x2 = 0.143
Details	viscosity [mPa·s]
298 K	357.8 ± 15
303 K	249.1 ± 10
313 K	128.2 ± 4.7
323 K	72.71 ± 2.5

CCCC[N+](CCCC)(CCCC)CCCC.[Br-] + CCCCCCCCCO
101.3 kPa, x1 = 0.2
Details	viscosity [mPa·s]
293.15 K	56.57 ± 1.3
298.15 K	43.65 ± 1.1
303.15 K	35.27 ± 0.84
308.15 K	28.53 ± 0.68
313.15 K	23.29 ± 0.55
318.15 K	19.13 ± 0.45
323.15 K	15.99 ± 0.37

NCCNCCN + O
viscosity [mPa·s], 101 kPa
Details	293.15 K	298.15 K	303.15 K	313.15 K	323.15 K
x1 = 0.0425	–	2.44 ± 0.73	2.06 ± 0.62	1.55 ± 0.47	1.23 ± 0.37
x1 = 0.0565	–	–	–	–	1.615 ± 0.066
x1 = 0.0568	–	3.46 ± 1	2.88 ± 0.87	2.07 ± 0.62	1.6 ± 0.48
x1 = 0.1	11.17 ± 1.6	–	7.2 ± 0.81	4.78 ± 0.46	3.41 ± 0.29
x1 = 0.1999	48.86 ± 3.1	–	24.8 ± 1.6	14.08 ± 0.88	8.54 ± 0.53
x1 = 0.2999	61.11 ± 3.7	–	30.19 ± 1.8	16.63 ± 1	10.2 ± 0.62
x1 = 0.3997	44.08 ± 2.7	–	23.49 ± 1.4	13.62 ± 0.83	8.35 ± 0.51
x1 = 0.4997	29.78 ± 1.9	–	16.66 ± 1	10.31 ± 0.64	6.79 ± 0.42
x1 = 0.5997	20.36 ± 1.3	–	12.11 ± 0.75	7.77 ± 0.48	5.28 ± 0.32
x1 = 0.6996	14.64 ± 0.91	–	9.24 ± 0.57	6.17 ± 0.38	4.22 ± 0.26
x1 = 0.7992	10.95 ± 0.68	–	–	4.9 ± 0.3	3.55 ± 0.22
x1 = 0.8073	–	–	–	–	3.445 ± 0.14
x1 = 0.8954	8.515 ± 0.34	–	–	–	–
x1 = 0.8989	8.48 ± 0.52	–	5.52 ± 0.34	4.11 ± 0.25	3.03 ± 0.18
